Where a SMILES comes first, the peptide text is derived from it. Bridges are numbered along the chain shown (N, C = ends). [ ]: non-standard residue; d: D form. The star is where a group is joined. Threoninol(2S,3R) = C[C@@H](O)[C@H](CO)N*
Columns and labels:
[1] = DRUGMATRIX: Potassium Channel [KATP] radioligand binding (ligand: [3H] Glyburide); type: cell membranes, Membrane; conditions: hit-t15; Not Active = under 50% inhibition at 10 µM
[2] = target: Beta-3 adrenergic receptor (Homo sapiens, UniProt P13945); assay: DRUGMATRIX: Adrenergic beta3 radioligand binding (ligand: [125I] Cyanopindolol); type: cell membranes, Membrane; conditions: hek293; Not Active = under 50% inhibition at 10 µM
Sequence of Beta-3 adrenergic receptor (P13945 whole entry): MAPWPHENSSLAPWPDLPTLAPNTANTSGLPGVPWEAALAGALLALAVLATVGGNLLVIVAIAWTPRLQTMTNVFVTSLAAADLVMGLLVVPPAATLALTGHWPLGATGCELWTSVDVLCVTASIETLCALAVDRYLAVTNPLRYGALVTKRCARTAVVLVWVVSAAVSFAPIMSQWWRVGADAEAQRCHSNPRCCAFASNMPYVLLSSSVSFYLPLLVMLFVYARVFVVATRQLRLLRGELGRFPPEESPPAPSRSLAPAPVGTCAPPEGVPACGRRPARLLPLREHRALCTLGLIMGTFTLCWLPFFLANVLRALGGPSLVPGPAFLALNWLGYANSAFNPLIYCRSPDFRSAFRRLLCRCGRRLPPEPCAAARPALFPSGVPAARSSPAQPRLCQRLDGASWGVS

[3] = DRUGMATRIX: ATPase, Na+/K+ enzyme inhibition (substrate: ATP); type: tissue-based, Sus scrofa, Heart; conditions: Not Active = under 50% inhibition at 10 µM
[4] = target: Epidermal growth factor receptor (Homo sapiens, UniProt P00533); assay: DRUGMATRIX: Protein Tyrosine Kinase, EGF Receptor enzyme inhibition (substrate: Poly(Glu:Tyr)); type: cell-based, Insect cells; conditions: insect cells; Not Active = under 50% inhibition at 10 µM
Sequence of Epidermal growth factor receptor (P00533 whole entry): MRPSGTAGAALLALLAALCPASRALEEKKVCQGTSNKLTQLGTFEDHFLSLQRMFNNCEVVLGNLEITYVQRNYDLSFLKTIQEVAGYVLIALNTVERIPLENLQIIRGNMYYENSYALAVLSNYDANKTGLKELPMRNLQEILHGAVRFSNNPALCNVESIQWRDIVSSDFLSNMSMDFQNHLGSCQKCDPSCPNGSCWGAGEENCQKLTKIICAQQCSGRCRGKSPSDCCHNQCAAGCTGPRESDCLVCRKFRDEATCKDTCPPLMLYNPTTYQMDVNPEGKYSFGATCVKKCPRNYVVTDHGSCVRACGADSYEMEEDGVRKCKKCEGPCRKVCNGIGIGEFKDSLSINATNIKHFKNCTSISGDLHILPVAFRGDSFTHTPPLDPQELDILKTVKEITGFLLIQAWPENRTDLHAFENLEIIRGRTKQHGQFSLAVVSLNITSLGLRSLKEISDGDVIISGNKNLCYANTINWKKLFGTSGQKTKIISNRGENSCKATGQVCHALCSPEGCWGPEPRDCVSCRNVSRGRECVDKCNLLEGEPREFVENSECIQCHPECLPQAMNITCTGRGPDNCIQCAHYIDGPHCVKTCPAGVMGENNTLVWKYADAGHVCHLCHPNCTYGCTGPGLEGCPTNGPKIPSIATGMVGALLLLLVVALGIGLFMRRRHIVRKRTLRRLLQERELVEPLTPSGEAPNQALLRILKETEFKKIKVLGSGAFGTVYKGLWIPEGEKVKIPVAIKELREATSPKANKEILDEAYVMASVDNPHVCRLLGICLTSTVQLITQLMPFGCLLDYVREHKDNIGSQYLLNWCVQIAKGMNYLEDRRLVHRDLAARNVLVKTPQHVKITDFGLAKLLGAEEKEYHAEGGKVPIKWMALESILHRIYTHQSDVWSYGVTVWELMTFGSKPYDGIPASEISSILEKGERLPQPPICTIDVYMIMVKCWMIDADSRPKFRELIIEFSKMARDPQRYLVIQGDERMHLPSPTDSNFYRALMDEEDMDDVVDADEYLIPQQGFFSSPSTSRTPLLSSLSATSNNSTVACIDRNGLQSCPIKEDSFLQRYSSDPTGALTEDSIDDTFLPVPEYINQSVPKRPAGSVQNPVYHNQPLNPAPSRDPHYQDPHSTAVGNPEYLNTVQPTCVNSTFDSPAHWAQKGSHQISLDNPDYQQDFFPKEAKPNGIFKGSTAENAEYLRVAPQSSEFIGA

[5] = target: Voltage-gated inwardly rectifying potassium channel KCNH2 (Homo sapiens, UniProt Q12809); conditions: hek293; also: in other assays of this panel Not Active means under 50% inhibition at 10 µM
Sequence of Voltage-gated inwardly rectifying potassium channel KCNH2 (Q12809 whole entry): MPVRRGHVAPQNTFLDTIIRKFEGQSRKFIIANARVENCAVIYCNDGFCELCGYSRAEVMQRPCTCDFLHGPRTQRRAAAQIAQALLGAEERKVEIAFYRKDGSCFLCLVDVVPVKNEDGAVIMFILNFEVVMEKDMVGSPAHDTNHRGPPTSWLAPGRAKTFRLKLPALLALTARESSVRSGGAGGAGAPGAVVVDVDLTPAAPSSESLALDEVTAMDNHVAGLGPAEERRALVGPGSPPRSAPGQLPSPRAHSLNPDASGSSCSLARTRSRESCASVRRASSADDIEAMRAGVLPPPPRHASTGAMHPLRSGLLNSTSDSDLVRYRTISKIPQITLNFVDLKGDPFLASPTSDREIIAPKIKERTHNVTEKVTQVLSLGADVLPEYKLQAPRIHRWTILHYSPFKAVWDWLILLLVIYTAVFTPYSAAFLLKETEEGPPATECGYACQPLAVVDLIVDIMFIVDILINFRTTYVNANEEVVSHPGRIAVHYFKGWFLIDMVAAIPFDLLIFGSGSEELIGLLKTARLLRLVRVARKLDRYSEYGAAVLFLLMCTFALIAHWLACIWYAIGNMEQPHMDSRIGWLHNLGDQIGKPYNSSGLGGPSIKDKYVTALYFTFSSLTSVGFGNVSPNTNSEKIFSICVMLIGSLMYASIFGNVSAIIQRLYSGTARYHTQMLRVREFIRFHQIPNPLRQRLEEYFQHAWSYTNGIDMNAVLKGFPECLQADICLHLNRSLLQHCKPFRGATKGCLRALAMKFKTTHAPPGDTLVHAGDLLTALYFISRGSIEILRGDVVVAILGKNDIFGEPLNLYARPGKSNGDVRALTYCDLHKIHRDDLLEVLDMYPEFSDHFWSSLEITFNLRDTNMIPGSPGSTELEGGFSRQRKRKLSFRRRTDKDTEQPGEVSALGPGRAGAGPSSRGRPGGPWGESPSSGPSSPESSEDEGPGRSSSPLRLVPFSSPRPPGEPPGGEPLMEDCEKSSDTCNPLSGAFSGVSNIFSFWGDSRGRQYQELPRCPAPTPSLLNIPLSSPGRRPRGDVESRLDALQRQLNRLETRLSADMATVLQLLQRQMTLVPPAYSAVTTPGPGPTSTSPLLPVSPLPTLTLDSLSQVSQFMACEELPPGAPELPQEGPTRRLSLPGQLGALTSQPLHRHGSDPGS

[6] = DRUGMATRIX: Imidazoline I2, Central radioligand binding (ligand: [3H] Idazoxan); type: cell membranes, Rattus norvegicus, Wistar, Cerebral cortex, Membrane; conditions: Not Active = under 50% inhibition at 10 µM
[7] = target: T1, Vasoactive intestinal polypeptide receptor 1 (Homo sapiens, UniProt P32241); type: cell membranes, Membrane; conditions: ht-29; also: in other assays of this panel Not Active means under 50% inhibition at 10 µM
T1 sequence (P32241 whole entry): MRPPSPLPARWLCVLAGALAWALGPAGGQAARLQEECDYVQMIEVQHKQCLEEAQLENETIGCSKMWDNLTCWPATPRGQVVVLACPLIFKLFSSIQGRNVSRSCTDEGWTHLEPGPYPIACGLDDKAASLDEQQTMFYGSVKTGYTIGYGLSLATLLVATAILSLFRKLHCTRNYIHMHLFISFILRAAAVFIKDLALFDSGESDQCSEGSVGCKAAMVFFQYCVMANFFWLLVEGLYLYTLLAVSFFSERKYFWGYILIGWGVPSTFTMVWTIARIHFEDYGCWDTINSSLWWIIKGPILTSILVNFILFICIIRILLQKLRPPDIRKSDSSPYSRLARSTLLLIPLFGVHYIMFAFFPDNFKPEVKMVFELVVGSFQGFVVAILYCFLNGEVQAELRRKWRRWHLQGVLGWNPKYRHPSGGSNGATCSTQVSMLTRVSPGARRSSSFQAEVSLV

| SMILES | IC50 [1] | Ki [1] | IC50 [2] | IC50 ([3]; read-out: IC50) | IC50 [4] | IC50 [5] | Ki [5] | IC50 [6] | Ki [6] | IC50 [7] | IC50 [3] | Ki [3] | Ki [2] | Ki [4] | Ki [7] |
| --- | --- | --- | --- | --- | --- | --- | --- | --- | --- | --- | --- | --- | --- | --- | --- |
| C[C@H]1O[C@@H](O[C@H]2[C@@H](O)C[C@H](O[C@H]3[C@@H](O)C[C@H](O[C@H]4CC[C@@]5(C)[C@H](CC[C@@H]6[C@@H]5CC[C@]5(C)[C@@H](C7=CC(=O)OC7)CC[C@]65O)C4)O[C@@H]3C)O[C@@H]2C)C[C@H](O)[C@@H]1O [DIGITOXIN] | Not Active | Not Active | Not Active | 225 nM | Not Active | Not Active | Not Active | Not Active | Not Active | Not Active | – | – | – | – | – |
| S=C=Nc1cccc2ccccc12 [1-NAPHTHYLISOTHIOCYANATE] | Not Active | Not Active | Not Active | – | Not Active | Not Active | Not Active | Not Active | Not Active | Not Active | Not Active | Not Active | – | – | – |
| CCOC(=O)C1=C(C)NC(C)=C(C(=O)OC)C1c1cccc([N+](=O)[O-])c1 (stereo not given) [NITRENDIPINE] | Not Active | Not Active | Not Active | – | Not Active | Not Active | Not Active | Not Active | Not Active | Not Active | Not Active | Not Active | – | – | – |
| CN(C)/N=N/c1[nH]cnc1C(N)=O [DACARBAZINE] | Not Active | Not Active | Not Active | – | Not Active | Not Active | Not Active | Not Active | Not Active | Not Active | Not Active | Not Active | – | – | – |
| COc1ccc2c(c1)[C@]13CCCC[C@@H]1[C@H](C2)N(C)CC3 [DEXTROMETHORPHAN] | Not Active | Not Active | Not Active | – | Not Active | Not Active | Not Active | Not Active | Not Active | Not Active | Not Active | Not Active | – | – | – |
| COc1ccccc1C(=O)N1CCC(Cc2ccccc2)CC1 | Not Active | Not Active | Not Active | – | Not Active | Not Active | Not Active | Not Active | Not Active | Not Active | Not Active | Not Active | – | – | – |
| C=C1CC[C@H](O)C/C1=C/C=C1\CCC[C@]2(C)[C@@H]([C@H](C)CCCC(C)C)CC[C@@H]12 [CHOLECALCIFEROL] | Not Active | Not Active | Not Active | – | Not Active | Not Active | Not Active | Not Active | Not Active | Not Active | Not Active | Not Active | – | – | – |
| COc1cc2c(c3oc(=O)c4c(c13)CCC4=O)[C@@H]1C=CO[C@@H]1O2 [AFLATOXIN] | Not Active | Not Active | Not Active | – | Not Active | Not Active | Not Active | Not Active | Not Active | Not Active | Not Active | Not Active | Not Active | Not Active | Not Active |
| CC(C)Cc1ccc(C(C)C(=O)O)cc1 (stereo not given) [IBUPROFEN] | Not Active | Not Active | Not Active | – | Not Active | Not Active | Not Active | Not Active | Not Active | Not Active | Not Active | Not Active | – | – | – |
| CC(C)(C(=O)c1cccnc1)c1cccnc1 [METYRAPONE] | Not Active | Not Active | Not Active | – | Not Active | Not Active | Not Active | Not Active | Not Active | Not Active | Not Active | Not Active | – | – | – |
| Cc1ncc([N+](=O)[O-])n1CCO [METRONIDAZOLE] | Not Active | Not Active | Not Active | – | Not Active | Not Active | Not Active | Not Active | Not Active | Not Active | Not Active | Not Active | – | – | – |
| C[C@@H](O)[C@H](CO)NC(=O)[C@@H]1CSSC[C@H](NC(=O)[C@H](N)Cc2ccccc2)C(=O)N[C@@H](Cc2ccccc2)C(=O)N[C@H](Cc2c[nH]c3ccccc23)C(=O)N[C@@H](CCCCN)C(=O)N[C@@H]([C@@H](C)O)C(=O)N1 (H-[dF]CF[dW]KTC-{Threoninol(2S,3R)}; disulfide 2-7) | Not Active | Not Active | Not Active | – | Not Active | Not Active | Not Active | Not Active | Not Active | Not Active | Not Active | Not Active | – | – | – |
| COc1ccc2[nH]c([S+]([O-])Cc3ncc(C)c(OC)c3C)nc2c1 (stereo not given) [OMEPRAZOLE] | Not Active | Not Active | Not Active | – | Not Active | Not Active | Not Active | Not Active | Not Active | Not Active | Not Active | Not Active | – | – | – |
